Reference: PubChem BioAssay AID179 (DTP/NCI, 2004)
Where “and” joins values, the source holds several entries; their conditions need not be identical. Equal entries are not always repeated. Calls of active or inactive are those of the source.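 Rule for the calls: active = compounds giving half or more protection of infected cells from virus-caused growth loss, again on retest; inactive = the rest.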

Tested on: CEM cells HIV-1 protection, formazan growth assay
Assay: NCI AIDS Antiviral Assay
Details: for IC50: measured here: growth of uninfected CEM cells
Outline: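 Protection of CEM cells against HIV-1 was scored from cell growth (soluble formazan) across five concentrations, with parallel uninfected cells. Lack of protection may reflect toxicity.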

SMILES	EC50 [µM]	IC50	outcome
CCOP(=O)(O)C(Nc1ccc(N=Nc2ccccc2)cc1)c1ccc(C(Nc2ccc(N=Nc3ccccc3)cc2)P(=O)(O)OCC)cc1 (stereo not drawn)	> 81.3	30.2 µM	
COc1cccc(N2C(=O)C3CC(CC(C)(C)C)c4c([nH]c5ccccc45)C3C2=O)c1 (stereo not drawn)	> 200	42.7 µM	
O=C(O)C12C3C4(C(=O)O)C1C1(C(=O)O)C2C3(C(=O)O)C41 (stereo not drawn)	> 200	> 200 µM	
Clc1ccc(Cl)c2[s+]snc12	> 14.5	> 14.5 µM	
CO[C@H]1/C=C/O[C@@]2(C)Oc3c(C)c(O)c4c(O)c(c(/C=N/N5C(C)CN(Cc6ccc(C#N)cc6)CC5C)c(O)c4c3C2=O)NC(=O)/C(C)=C\C=C\[C@H](C)[C@H](O)[C@@H](C)[C@@H](O)[C@@H](C)[C@H](OC(C)=O)[C@@H]1C (stereo partly drawn)	> 200	9.12 µM	
CC(=O)N(C)c1ccc2c(ccc[n+]2[O-])c1[N+](=O)[O-]	> 955	> 955 µM	
Cn1cc(NC(=O)c2cc(NC(=O)CCCCCCCCCCC(=O)Nc3cc(C(=O)Nc4cc(C(=O)NCCC(=N)N)n(C)c4)n(C)c3)cn2C)cc1C(=O)NCCC(=N)N	4.07	7.76 µM	
CCCCn1c2ccccc2c2ccc3c(c21)C(=O)C=CC3=O	> 17.4	> 17.4 µM	
O=C(NC1CCCC1=O)c1ccccc1 (stereo not drawn)			inactive
CCOC(=O)C1=C2c3cccnc3-c3ccccc3N2C(C(=O)OCC)C1C(=O)OCC (stereo not drawn)			inactive
Cc1ccc2[nH]c(N(C)C)nc2c2nc(Cl)nc1-2	> 200	117 µM	
Cc1cccc(C)c1NC(=O)CCC(=O)CC(=O)C(C)C	> 123	> 123 µM	
O=C(CCCC(=O)Nc1ccc(Cl)cc1Cl)CC(=O)c1ccc2ccccc2c1	> 417	> 417 µM	
CCOC(=O)c1c(N)nnc(-c2ccccc2)c1-c1ccccc1	> 200	129 µM	
CCCCCN(CCCCC)CC(=O)OCC1(C)CCCC2(C)C3CCC(C(C)C)=CC3=CCC12 (stereo not drawn)	> 200	35.5 µM	
N#CCCN(CCC#N)c1ccc(/C=C2/N=C(COc3ccccc3)N(c3ccc(Cl)cc3)C2=O)cc1	> 37.2	> 37.2 µM	
Clc1ccc(-c2nnc3n2NC(c2ccccc2)S3)c(Cl)c1 (stereo not drawn)	> 85.1	69.2 µM	
COC1/C=C/OC2(C)Oc3c(C)c(O)c4c(O)c(c(/C=N/N5C(C)CN(Cc6ccc([N+](=O)[O-])cc6)CC5C)c(O)c4c3C2=O)NC(=O)/C(C)=C\C=C\C(C)C(O)C(C)C(O)C(C)C(OC(C)=O)C1C (stereo not drawn)	> 200	7.59 µM	
COC(=O)c1ccc(CO/N=C(\c2ccccc2)c2cccnc2)cc1	> 200	47.9 µM	
CC1=C(C(=O)Nc2ccccc2C)C(c2ccc(Cl)cc2)C(C(=O)Nc2ccccc2C)=C(C)N1	> 2.95	> 2.95 µM	

SMILES	EC50 [µM]	IC50	outcome
Cc1c(C(=O)O)c2cc3ccccc3cc2c(=O)n1C	> 200	> 200 µM	
CC(=O)OCc1ccc(-c2nc(C#N)c(N)o2)o1	> 200	> 200 µM	
CC(=O)OCCN1CCOC(O)(c2cccc(C(F)(F)F)c2)C1 (stereo not drawn)	> 200	117 µM	
CN(C)CCNc1ccc(NCCN(C)C)c2c1C(=O)c1ncsc1C2=O	> 100	0.724 µM	
Cc1c2cc(O)c(=O)cc-2oc2cc(O)c(O)cc12	> 200	12.6 µM and 39.8 µM	
N#Cc1cc([N+](=O)[O-])ccc1NC(=O)C(=O)C(C(=O)c1ccc2ccccc2c1)C1OCc2ccccc21 (stereo not drawn)	> 70.8	37.2 µM	
O=c1[nH]c(=O)n(C2OC(CO)C(O)C2O)cc1OCCc1ccccc1 (stereo not drawn)	> 200	> 200 µM	
[N-]=[N+]=NC1C[C@H](n2cc(/C=C/Br)c(=O)[nH]c2=O)C[C@@H]1CO (stereo partly drawn)	> 363	355 µM	
CN1C(=O)c2ccccc2N=CN1C(=O)Nc1ccccc1	> 123	> 123 µM	
O=C(NCCCCN(CCCNC(=O)C(F)(F)F)Cc1ccc2ccccc2c1)C(F)(F)F	> 200	34.7 µM	
Cc1ccc(/C=C2/N=C(N/N=C\C(O)C(O)C(O)C(O)CO)NC2=O)cc1 (stereo not drawn)	> 200	123 µM and > 200 µM and 132 µM	
CC(C)C1CC(CO)(CNc2nc(N)nc(Cl)c2/C=N\O)C1 (stereo not drawn)	> 20	0.0331 µM	
CC1(C)OC2CC3COC(=O)C3CC2O1 (stereo not drawn)	> 1170	> 1170 µM	
CC(=O)Oc1ccc(C)c2c1[C@H]1CC[C@]3(C)[C@@H](OC(C)=O)CC[C@H]3[C@@H]1CC2	> 200	32.4 µM	
CC1(C)C(=O)C(=Cc2ccco2)C1=O	> 100	> 100 µM	
CN1c2ccccc2N(C(=O)c2ccc(Cl)cc2)C(CC(=O)O)c2cccn21 (stereo not drawn)	> 631	117 µM	
CCOC(=O)/C=C1\Nc2ccccc2C(c2ccccc2)=NC1OC(C)=O (stereo not drawn)	> 20	> 20 µM	
Cn1/c(=N\S(=O)(=O)c2ccccc2)n(S(=O)(=O)c2ccccc2)c2ccccc21	> 200	> 200 µM	
CN(/N=C\c1ccc2ccccc2c1)C1=NCCCCN1	> 200	28.8 µM	
Nc1c2cc3ccc2nc2ccc(cc12)OCCOCCOCCOCCOCCOCCO3	> 200	> 200 µM	

SMILES	EC50 [µM]	IC50	outcome
C[n+]1c2ccccc2c(NC(CCC(N)=O)C(=O)O)c2ccccc21 (stereo not drawn)			inactive
Cc1[nH]n(-c2ncc(C(=O)O)c(=O)[nH]2)c(=O)c1CCO	> 200	> 200 µM	
CCOc1cc2c(cc1O)/C(=N\N)C[C@@H]1[C@@H]2CC[C@]2(C)[C@@H](O)CC[C@@H]12	> 2	0.209 µM	
O=Cc1ccc(/C=C2\C=Cc3ccccc32)cc1	> 58.9	> 58.9 µM	
Nc1c(S(=O)(=O)O)cc2cc(S(=O)(=O)O)ccc2c1N=Nc1ccc(/C=C/c2ccc(N=Nc3c(N)c(S(=O)(=O)O)cc4cc(S(=O)(=O)O)ccc34)cc2S(=O)(=O)O)c(S(=O)(=O)O)c1	2.82	79.4 µM	
O=C(CCN1CCCCC1CO)Nc1ccc2c(c1)C(=O)c1ccc(NC(=O)CCN3CCCCC3CO)cc1C2=O (stereo not drawn)	> 200	3.16 µM	
CN(C)CCCNC(=O)c1cc(NC(=O)c2cc(NC(=O)c3cc(NC(=O)c4ncccc4C(=O)O)cn3C)cn2C)cn1C	> 200	> 200 µM	
CN1CCOC(c2ccccc2)O1 (stereo not drawn)	> 251	> 251 µM	
CC(C)C1OC23CCCCC2C(C#N)(C#N)C1(C#N)C(=N)O3 (stereo not drawn)	> 200	5.89 µM	
O=C1[C@H]2CCCC[C@H]2C(=O)N1N1C(=O)[C@H]2CCCC[C@H]2C1=O			inactive
CC(C)(CO)/[N+]([O-])=C/c1ccccc1	> 200	> 200 µM	
CC(=O)Nc1cccc(C[P+](c2ccccc2)(c2ccccc2)c2ccccc2)c1	> 200	91.2 µM	
COc1ccc(C2c3cc4c(cc3OC(N3CCOCC3)C2C)OCO4)c(OC)c1 (stereo not drawn)	> 200	3.31 µM	
CC(=O)NC(C)(C)C			inactive
Cc1c2[nH]c3ccc(Br)cc3c2c(C)c2[nH]ccc(=O)c12	> 3.31	> 3.31 µM	
C/C=C(\C1CC2c3[nH]c4ccccc4c3CCN2C(=O)C1C(=O)OCC)[Si](C)(C)C (stereo not drawn)	> 12.3	> 12.3 µM	
COc1ccc(-c2coc3cc(OC)c(OC)c(OC)c3c2=O)cc1	> 200	> 200 µM	
N#C/C(=C/c1ccco1)C(=O)c1ccccc1	> 162	> 162 µM	
CC(=O)NC(=O)NC1=NCCC(=O)N1CCc1c[nH]c2ccccc12	> 200	> 200 µM	
